Drawing on BindingDB's records for doi:10.1016/s0968-0896(99)00127-3 (Sankyo, 1999), this text covers IC50 for twelve compounds.

In general, IC50 refers to the concentration at which inhibition is half-maximal.

This test has as its target T1, Dimer of Gag-Pol polyprotein [489-587] (Human immunodeficiency virus 1, UniProt P12497).
T1 construct: 489-587
Nature of the test: Protease Inhibition Assay. On the procedure: The inhibitory activities of the compounds toward HIV-1 PR were determined by sodium dodecyl sulfate-polyacrylamide gel electrophoresis (SDS-PAGE) assay. The IC50 values of active compounds were determined using the partially purified protease and the synthetic substrate Ac-Ser-Gln-AsnTyr-Pro-Ile-Val-NH2.
Turning to `Cc1c(O)cccc1C(=O)N[C@@H](Cc1ccc(F)c(F)c1)[C@H](O)C(=O)N1C[C@@H](Cl)C[C@H]1C(=O)NC(C)(C)C` [(2S,4S)-N-tert-butyl-4-chloro-1-[(2S,3S)-4-(3,4-difluorophenyl)-2-hydroxy-3-[(3-hydroxy-2-methylphenyl)formamido]butanoyl]pyrrolidine-2-carboxamide], the IC50 came to 0.8 nM.
As to `Cc1c(O)cccc1C(=O)N[C@@H](Cc1cccc(F)c1)[C@H](O)C(=O)N1C[C@@H](Cl)C[C@H]1C(=O)NC(C)(C)C` [(2S,4S)-N-tert-butyl-4-chloro-1-[(2S,3S)-4-(3-fluorophenyl)-2-hydroxy-3-[(3-hydroxy-2-methylphenyl)formamido]butanoyl]pyrrolidine-2-carboxamide], the IC50 stood at 0.6 nM.
Then `Cc1cccc(C[C@H](NC(=O)c2cccc(O)c2C)[C@H](O)C(=O)N2C[C@@H](Cl)C[C@H]2C(=O)NC(C)(C)C)c1` [(3-Hydroxy-2-methylbenzoyl)-(2(S)-hydroxy-3(S)-amino-4-m-tolylbutanoyl)-4(S)-Cl-Pro-NH-t-Bu], with 0.6 nM.
In turn, `Cc1ccc(C(=O)N[C@@H](Cc2ccc3ccccc3c2)[C@H](O)C(=O)N2C[C@@H](Cl)C[C@H]2C(=O)NC(C)(C)C)c(C)c1O` showed an IC50 of 3.2 nM.
Then `Cc1ccc(C[C@H](NC(=O)c2ccc(C)c(O)c2C)[C@H](O)C(=O)N2C[C@@H](Cl)C[C@H]2C(=O)NC(C)(C)C)cc1` [(2S,4S)-N-tert-butyl-4-chloro-1-[(2S,3S)-2-hydroxy-3-[(3-hydroxy-2,4-dimethylphenyl)formamido]-4-(4-methylphenyl)butanoyl]pyrrolidine-2-carboxamide], with 8.6 nM; and `Cc1c(O)cc(F)cc1C(=O)N[C@@H](Cc1ccc2ccccc2c1)[C@H](O)C(=O)N1C[C@@H](Cl)C[C@H]1C(=O)NC(C)(C)C` [(2S,4S)-N-tert-butyl-4-chloro-1-[(2S,3S)-3-[(5-fluoro-3-hydroxy-2-methylphenyl)formamido]-2-hydroxy-4-(naphthalen-2-yl)butanoyl]pyrrolidine-2-carboxamide], with 1.2 nM.
The value for `Cc1ccccc1C[C@H](NC(=O)c1ccc(C)c(O)c1C)[C@H](O)C(=O)N1C[C@@H](Cl)C[C@H]1C(=O)NC(C)(C)C` [(2S,4S)-N-tert-butyl-4-chloro-1-[(2S,3S)-2-hydroxy-3-[(3-hydroxy-2,4-dimethylphenyl)formamido]-4-(2-methylphenyl)butanoyl]pyrrolidine-2-carboxamide] was 49.9 nM; that for `Cc1ccc(C(=O)N[C@@H](Cc2cccc(C(F)(F)F)c2)[C@H](O)C(=O)N2C[C@@H](Cl)C[C@H]2C(=O)NC(C)(C)C)c(C)c1O` was 3.5 nM; that for `Cc1cc(O)c(C)c(C(=O)N[C@@H](Cc2cccc(C(F)(F)F)c2)[C@H](O)C(=O)N2C[C@@H](Cl)C[C@H]2C(=O)NC(C)(C)C)c1` was 1.9 nM.
For `Cc1c(O)cccc1C(=O)N[C@@H](Cc1ccc2sccc2c1)[C@H](O)C(=O)N1C[C@@H](Cl)C[C@H]1C(=O)NC(C)(C)C` [(2S,4S)-1-[(2S,3S)-4-(1-benzothiophen-5-yl)-2-hydroxy-3-[(3-hydroxy-2-methylphenyl)formamido]butanoyl]-N-tert-butyl-4-chloropyrrolidine-2-carboxamide], the IC50 amounted to 1.4 nM.
Then `Cc1cccc(C[C@H](NC(=O)c2c(C)ccc(O)c2C)[C@H](O)C(=O)N2C[C@@H](Cl)C[C@H]2C(=O)NC(C)(C)C)c1`, with 3.4 nM.
Then `Cc1c(O)cccc1C(=O)N[C@@H](Cc1ccc(O)cc1)[C@H](O)C(=O)N1C[C@@H](Cl)C[C@H]1C(=O)NC(C)(C)C` [(2S,4S)-N-tert-butyl-4-chloro-1-[(2S,3S)-2-hydroxy-3-[(3-hydroxy-2-methylphenyl)formamido]-4-(4-hydroxyphenyl)butanoyl]pyrrolidine-2-carboxamide], with 1.3 nM.
